Paper PMC8536124 (International Journal of Molecular Sciences, 2021)
Entries after “also recorded” stand apart in the source; their conditions may differ. Like-named read-outs stand apart in the source and are kept apart here.

Assays:
CCRF-CEM cell line = system: CCRF-CEM cell line; parameters: method as in PMID 27425639; conditions: cited from earlier work
LOX IMVI = test: NCI-60 screening (SRB); format: cell-based, human; conditions: LOXIMVI (Melanoma); 1 dose 10 µM
[1] = system: NCI-60 cancer cell line panel; test: NCI-60 screening (SRB), full panel; format: cell-based, human; conditions: 1 dose 10 µM; for activity at 10 µM: Homo sapiens, 60 cell lines, 48 h
Description: (§1) The experimental data allow the assessment of the cytostatic effect, indicated by growth inhibition values ranging between 0 and 100, as well as of the cytotoxic effect, indicated by negative values.
(§2) The mean GI50 (molar concentration of the compound that inhibits 50% net cell growth), TGI (molar concentration of the compound leading to the total inhibition), and LC50 (molar concentration of the compound leading to 50% net cell death (presented in negative logarithm)) values across each cell line are shown in Table 2.
(§3) The selectivity index (SI), calculated as the ratio between the full panel MG_MID60 (μM) of compounds 4, 6, and 9 by their respective subpanels MG_MID of the cell line (μM), was introduced as a quantification tool for the selectivity of each compound in terms of anticancer effect (Table 3).
(§4) Primary anticancer assays were performed according to the NCI protocol, as described elsewhere (see e.g., http://dtp.nci.nih.gov accessed on 1 November 2018). The compounds were added at a single concentration, and the cell cultures were incubated for 48 h. The end point determinations were made with a protein-binding dye, sulforhodamine B (SRB). […] The percentage of growth was evaluated spectrophotometrically versus controls not treated with test agents after 48 h exposure and using SRB protein assay to estimate cell viability or growth. Three antitumor activity dose-response parameters were calculated for each cell line. Furthermore, mean graph midpoints (MG_MID) were calculated for each of the parameters, giving an average activity parameter over all cell lines for the tested compound. For the MG_MID calculation, insensitive cell lines were included with the highest concentration tested.

[2] = system: A549 non-small lung cancer cells; parameters: method as in doi:10.1007/BF02974180, PMID 15694457; conditions: cited from earlier work
HCT15 colon cancer cells = system: HCT15 colon cancer cells; parameters: method as in doi:10.1007/BF02974180, PMID 15694457; conditions: cited from earlier work
[3] = system: HONE-1 nasopharyngeal cancer cells; parameters: method as in doi:10.1007/BF02974180, PMID 15694457; conditions: cited from earlier work
[4] = system: KB oral epidermoid cancer cells; parameters: method as in doi:10.1007/BF02974180, PMID 15694457; conditions: cited from earlier work
[5] = system: HT29 colorectal cancer cells; parameters: method as in doi:10.1007/BF02974180, PMID 15694457; conditions: cited from earlier work
[6] = system: NIH3T3 noncancer murine fibroblast cells; parameters: method as in PMID 26044356; conditions: NIH3T3 noncancer murine fibroblasts; cited from earlier work
CAKI-1 = test: NCI-60 screening (SRB); format: cell-based, human; conditions: CAKI-1 (Renal cancer); 1 dose 10 µM
[7] = system: T-lymphoblastic leukemia, breast adenocarcinoma, and cervical cancer cells; conditions: cited from earlier work
[8] = system: HeLa, MCF-7, HepG2, B16, and A375 cancer cell lines; parameters: method as in PMID 21496972; conditions: MCF-7, HepG2, B16, A375; cited from earlier work
HL-60(TB) = test: NCI-60 screening (SRB); format: cell-based, human; conditions: HL-60(TB) (Leukemia); 1 dose 10 µM
Leukemia = test: NCI-60 screening (SRB), subpanel; format: cell-based; conditions: leukemia cancer cell lines; 1 dose 10 µM
Description: as §1, §2, §3, §4

A498 = test: NCI-60 screening (SRB); format: cell-based, human; conditions: A498 renal cancer; 1 dose 10 µM

| Compound | Positive Cytostatic Effect (cell lines with percent growth 0 to 50 / total) [1] | Positive Cytotoxic Effect (cell lines with percent growth <0 / total) [1] | antiproliferative effect in one dose primary screening [1] | activity at 10 µM ([1]; read-out: Mean Growth, %) | activity at 10 µM ([1]; read-out: Range of Growth, %) | also measured |
| --- | --- | --- | --- | --- | --- | --- |
| C=C(C)C1CCC2(C(=O)N3CCNCC3)CCC3(C)C(CCC4C5(C)CCC(O)C(C)(C)C5CCC43C)C12 (centres unmarked) [Betulinic acid piperazinyl amide] |  |  |  |  |  | IC50 (CCRF-CEM cell line): 0.8 µM |
| CCN1CCN(C(=O)[C@]23CC[C@@H](C)[C@H](C)[C@H]2C2=CC[C@@H]4[C@@]5(C)C/C(=C/c6ccccn6)C(=O)C(C)(C)[C@@H]5CC[C@@]4(C)[C@]2(C)CC3)CC1 [Compound 8] | 0/59 | 0/59 | do not exhibit antiproliferative effects; also recorded: do not induce any significant antiproliferative activity | 92.4% | 74.8 to 108% | Growth % (LOX IMVI): 74.76% |
| C[C@H]1[C@H](C)CC[C@]2(C(=O)O)CC[C@]3(C)C(=CC[C@@H]4[C@@]5(C)CCC(=O)C(C)(C)[C@@H]5CC[C@]43C)[C@H]12 [Ursonic acid] |  |  |  |  |  | IC50 [2]: 7.7 µM; IC50 (HCT15 colon cancer cells): 4.6 µM; IC50 [3]: 5.2 µM; IC50 [4]: 4 µM; IC50 [5]: 6.3 µM; IC50 [6]: > 50 µM |
| CCN1CCN(C(=O)[C@]23CCC(C)(C)C[C@H]2C2=CC[C@@H]4[C@@]5(C)C/C(=C/c6ccccn6)C(=O)C(C)(C)[C@@H]5CC[C@@]4(C)[C@]2(C)CC3)CC1 [Compound 5, N-(2-{2-Pyridinylidene}-3-oxoolean-12-en-28-oyl)-ethylpiperazine] | 0/59 | 0/59 | do not exhibit antiproliferative effects; also recorded: do not induce any significant antiproliferative activity | 86.7% | 49.2 to 115% | Growth % (CAKI-1): 49.25% |
| C=C(C)C1CCC2(C(=O)N3CCNCC3)CCC3(C)C(CCC4C5(C)CCC(O)C(C)(C)C5CCC43C)C12 (centres unmarked) [piperazine amide of betulinic acid] |  |  |  |  |  | cytotoxicity [7]: 0.7 to 7.8 µM |
| 3,23-dihydroxy-17-piperazinyl betulinic amide |  |  |  |  |  | IC50 [8]: < 10 µM |
| CCN1CCN(C(=O)[C@]23CCC(C)(C)C[C@H]2C2=CC[C@@H]4[C@@]5(C)CCC(=O)C(C)(C)[C@@H]5CC[C@@]4(C)[C@]2(C)CC3)CC1 [Compound 3, N-(3-oxo-olean-12-en-28-oyl)-ethylpiperazine] | 5/59 | 7/59 | moderate growth inhibition activity | 46% | -35.8 to 80.4% | Growth % (HL-60(TB)): −35.82%; growth percentages, range (Leukemia): −35.82 to 37.47%; Growth % (A498): −7.95% |
